Reference: patent publication US9187518B2, “Antiangiogenic brassinosteroid compounds” (CONSEJO NACIONAL DE INVESTIGACIONES CIENTIFICAS Y TECNICAS …, priority 2011, dated 2015)

What was measured:
[1] = test system: IL-6; assay: IL-6 secretion in LPS-stimulated J774A.1 macrophages (ELISA); type: cell-based, murine; details: J774A.1 stimulated with 100 ng/ml LPS 8 h, 40 μM
Description: J774A.1 cells grown in 24-well plates were incubated at 37° C. with 100 ng/ml of LPS, in duplicate. After 8 h, supernatants were harvested and murine IL-6 was quantified by commercial ELISA sets (BD OptEIA™, Becton Dickinson, USA) according to manufacturer instructions.

[2] = test system: HUVEC cells; assay: Capillary tube formation on a Matrigel; type: cell-based, human; details: for reduction of tube formation vs untreated control: not statistically significant
Description: The formation of capillary tube like structures by HUVEC cells was analyzed on 24-well cell culture plates coated with an extracellular membrane matrix (Matrigel; BD Biosciences).
Matrigel was thawed at 4° C. Using precooled plates and tips, 100 μl/well of Matrigel was distributed and allowed to gelify at 37° C. for at least 30 min. Cells were seeded on the polymerized Matrigel (5 to 8×10^4 cells/well). The plate was incubated at 37° C., and tube formation was observed under a optic inverted microscope. Digital pictures were taken at different times with a camera. Tubular structures were quantified by manual counting of low power fields (25×) and inhibition percentage was expressed using untreated wells as 100%.
The formation of capillary tube-like structures by HUVEC cells was analyzed on 24-well cell culture plates coated with an extracellular membrane matrix (Matrigel; BD Biosciences). Matrigel was thawed at 4° C. Using precooled plates and tips, 100 μl/well of Matrigel was distributed and allowed to gelify at 37° C. for at least 30 min. Cells were seeded on the polymerized Matrigel (5 to 8×10^4 cells/well) in absence and presence of concentrations of 20 μM and 40 μM of each compound. The plate was incubated at 37° C., and tube formation was observed under an optic inverted microscope. Compound 1 was used as positive control.

[3] = test system: IL-6; assay: IL-6 secretion in epithelial cells (ELISA); type: cell-based, human
[4] = test system: J774A.1 cells stimulated with LPS; assay: Microarray gene expression in J774A.1 cells stimulated with LPS; type: cell-based, mouse; details: J774A.1, 100 ng/ml LPS, 40 μM, 6 h
Description: HSV-1 infected cells and LPS stimulated cells were transcriptionally analyzed by using the whole human genome microarray and whole mouse genome microarray (Agilent Technologies, Santa Clara, Calif.), corresponding to 41,000 human or mice genes and transcripts.
RNA was extracted with chloroform/isopropanol and purified from Trizol.
cDNA synthesis, amplification and labeling of cRNA was performed, following the protocol of two colors of Agilent. Cyanine: 3-CTP and 5-CTP labeled cRNA was prepared from purified RNA (Two-Color Microarray-Based Gene Expression Analysis—Quick Amp Labeling, Agilent). Labeled cRNA was purified, quantified and the efficiency of labeling determined.
After that, we proceeded with the hybridization, washing, assembling of the chips and scanning. The scanner software (Feature extraction) performed the scan quality control. The fluorescence intensity data obtained for each chip were analyzed using GeneSpring XG11 and Multi Experiment Viewer (MeV) programs.
Labeled samples were placed in human and mouse hybridizing chips for HCLE and J774A.1 cells, respectively, during 17 h at 60° C. Successive washings were done with different washing, stabilization and drying solutions, and samples were scanned in the Agilent scanner G2565BA.
We used the commercial software Agilent Feature Extraction for quality control of the scan. The software converts the scanned images produced in quantitative data for further analysis. It calculates the errors associated with hybridization, washing and scanning and detects outliers. On the one hand, it performs an analysis of the image to locate the grid on the chip and in it, the spots for each gene, and on the other hand, it makes an analysis of data, to define and measure information (fluorescence intensity) of each spot, for the analysis of gene expression.
We identified differentially expressed genes with statistical significance. We used two programs, the XG11 and GeneSpring and the Multi Experiment Viewer (MeV).
For this purpose, epithelial infected and inflammatory cells were processed to obtain RNA samples. HCLE cells infected with HSV-1 (m.o.i.=1) and J774A.1 cells stimulated with LPS (100 ng/ml) were treated or not with 40 μM of Compound 1. To extract total RNA, cells were harvested with Trizol at 6 h p.i. and at 6 h post-LPS induction. Eight replicates were obtained from HSV-1 infected and LPS-stimulated cells (four ‘control’ each) and other eight, from infected and LPS-stimulated cells treated with Compound 1 (four ‘treated’ each).

With `CC[C@@H](C(C)C)[C@H](O)[C@@H](O)[C@@H](C)[C@H]1CC[C@H]2[C@@H]3CCC4=CC(=O)CC[C@]4(C)[C@H]3CC[C@]12C` [Compound 1, (22S,23S)-22,23-dihydroxystigmast-4-en-3-one] the IL-6 level [1] was 838 ± 4.2 pg/mL, the “reduction of tube formation vs untreated control” value ([2]; 2.5 μM, 24 h) was 17.3% and the “reduction of tube formation vs untreated control” value ([2]; 5 μM, 24 h) was 25.9%. The “reduction of the tube-like network” value ([2]; 10 μM, 24 h) was 59.8%, the “formation of capillary tube like structures” value ([2]; 20 μM and 40 μM, comparative assay) was “showed inhibitory activity” and the “reduction of the tube-like network” value ([2]; 20 μM, 24 h) was 90.7%. The “inhibition of tube formation” value ([2]; 50 μM, 24 h) was “complete inhibition”, the “inhibition of tube formation” value ([2]; 100 μM, 24 h) was “complete inhibition” and the inhibition at 40 µM ([2]; Homo sapiens, HUVEC, 40 μM, 24 h) was 93.9%. The IL-6 release ([3]; HSV-1 infected HCLE cells, 40 μM, 24 h, vs infected control) was “did not elicit any change”, the IL-6 release ([3]; HSV-1 infected IOBA-NHC cells, 40 μM, 24 h, vs infected control) was “did not elicit any change” and the IL-6 release ([3]; uninfected treated cells, compound alone) was “did not induce IL-6 release by itself”. For the same compound, the Dusp2 gene expression [4] was “restrained”, the “expression of ATF3 and TLR4” value [4] was “overexpressed” and the “expression of IL-10 and Socs2” value ([4]; vs untreated control) was “increased”. For the same compound, the “expression of genes for IL-12, IL-23 and CXCL10” value ([4]; vs untreated stimulated) was “overexpression”.
